System: 997726-040-R-J2-PDC tumor spheroids, viability
Assay: Anticancer human tumor 997726-040-R-J2-PDC patient-derived squamous cell lung carcinoma cell line growth inhibition [PI3K]
Conditions: spheroids with HUVEC and MSC; for IC50: curve of first compound; for viability, T/C: stronger effect = lower value
How it was run: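 Spheroid viability read-out. Co-cultures contained the tumor line plus HUVEC and human MSCs. Each agent was paired with a PI3K inhibitor (inavolisib, alpelisib, duvelisib, copanlisib) across half-log dilutions starting at clinical Cmax, or at 10 microM when Cmax was unknown.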

[1] = second compound 0.00316 µM, first compound 0.0316 µM
[2] = second compound 0.00316 µM, first compound 0.1 µM
[3] = second compound 0.00316 µM, first compound 0.316 µM
[4] = second compound 0.00316 µM, first compound 1 µM
[5] = second compound 0.00316 µM, first compound 3.16 µM
[6] = second compound 0.00316 µM, first compound 10 µM
[7] = second compound 0.01 µM, first compound 0.0316 µM
[8] = second compound 0.01 µM, first compound 0.1 µM
[9] = second compound 0.01 µM, first compound 0.316 µM
[10] = second compound 0.01 µM, first compound 1 µM
[11] = second compound 0.01 µM, first compound 3.16 µM
[12] = second compound 0.01 µM, first compound 10 µM
[13] = second compound 0.0316 µM, first compound 0.0316 µM
[14] = second compound 0.0316 µM, first compound 0.1 µM
[15] = second compound 0.0316 µM, first compound 0.316 µM
[16] = second compound 0.0316 µM, first compound 1 µM
[17] = second compound 0.0316 µM, first compound 3.16 µM
[18] = second compound 0.0316 µM, first compound 10 µM
[19] = second compound 0.1 µM, first compound 0.0316 µM
[20] = second compound 0.1 µM, first compound 0.1 µM
[21] = second compound 0.1 µM, first compound 0.316 µM
[22] = second compound 0.1 µM, first compound 1 µM
[23] = second compound 0.1 µM, first compound 3.16 µM
[24] = second compound 0.1 µM, first compound 10 µM
[25] = second compound 0.316 µM, first compound 0.0316 µM
[26] = second compound 0.316 µM, first compound 0.1 µM
[27] = second compound 0.316 µM, first compound 0.316 µM
[28] = second compound 0.316 µM, first compound 1 µM
[29] = second compound 0.316 µM, first compound 3.16 µM
[30] = second compound 0.316 µM, first compound 10 µM
[31] = second compound 1 µM, first compound 0.0316 µM
[32] = second compound 1 µM, first compound 0.1 µM
[33] = second compound 1 µM, first compound 0.316 µM
[34] = second compound 1 µM, first compound 1 µM
[35] = second compound 1 µM, first compound 3.16 µM
[36] = second compound 1 µM, first compound 10 µM
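Further: spheroids exposed to compounds for seven days before readout.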

For `CC1(C)CCC(Nc2ncc(C(F)(F)F)c(-c3c[nH]c4c(P(C)(C)=O)c(C#N)ccc34)n2)CN1` (stereo unspecified) + COc1c(OCCCN2CCOCC2)ccc2c3n(c(=NC(=O)c4cnc(N)nc4)nc12)CCN3, the IC50 (second compound 0.00316 µM) was under 31.6 nM, the IC50 (second compound 0.01 µM) was under 31.6 nM and the IC50 (second compound 0.0316 µM) was under 31.6 nM. For the same compound, the IC50 (second compound 0.1 µM) was under 31.6 nM, the IC50 (second compound 0.316 µM) was under 31.6 nM and the IC50 (second compound 1 µM) was under 31.6 nM. It also gave a viability, T/C [1] of 36.8%, a viability, T/C [2] of 34.2% and a viability, T/C [3] of 40.7%. It also gave a viability, T/C [4] of 34.8%, a viability, T/C [5] of 39.8% and a viability, T/C [6] of 16.6%. The viability, T/C [7] was 27%, the viability, T/C [8] was 28.9% and the viability, T/C [9] was 29.9%. The viability, T/C [10] was 30.5%, the viability, T/C [11] was 33.6% and the viability, T/C [12] was 12.6%. The viability, T/C [13] was 21.4%, the viability, T/C [14] was 17.6% and the viability, T/C [15] was 18.2%. For the same compound, the viability, T/C [16] was 24.8%, the viability, T/C [17] was 23.9% and the viability, T/C [18] was 7.84%. It also gave a viability, T/C [19] of 13.5%, a viability, T/C [20] of 12.1% and a viability, T/C [21] of 13.2%. For the same compound, the viability, T/C [22] was 13.9%, the viability, T/C [23] was 15% and the viability, T/C [24] was 2.98%. It also gave a viability, T/C [25] of 3.97%, a viability, T/C [26] of 3.68% and a viability, T/C [27] of 3.96%. It also gave a viability, T/C [28] of 5.01%, a viability, T/C [29] of 4.34% and a viability, T/C [30] of 0.66%. It also gave a viability, T/C [31] of 0.85%, a viability, T/C [32] of 0.74% and a viability, T/C [33] of 0.9%. It also gave a viability, T/C [34] of 0.76%, a viability, T/C [35] of 0.9% and a viability, T/C [36] of 0.33%.

In the case of `Cn1ncc(Cl)c1-c1cc(C(=O)NC(CN)Cc2cccc(F)c2)sc1Cl` (stereo unspecified) + CC(Nc1ncnc2nc[nH]c12)c1cc2cccc(Cl)c2c(=O)n1-c1ccccc1, the IC50 (second compound 0.0316 µM) is reported as 112 nM, the IC50 (second compound 0.1 µM) is reported as 118 nM and the IC50 (second compound 0.316 µM) is reported as 113 nM. It also gave an IC50 (second compound 1 µM) of 128 nM, an IC50 (second compound 3.16 µM) of 76.9 nM and an IC50 (second compound 10 µM) of 36.3 nM. It also gave a viability, T/C [13] of 79.2%, a viability, T/C [14] of 52.6% and a viability, T/C [15] of 26.7%. For the same compound, the viability, T/C [16] was 16.1%, the viability, T/C [17] was 9.99% and the viability, T/C [18] was 12.3%. The viability, T/C [19] was 71.1%, the viability, T/C [20] was 52.8% and the viability, T/C [21] was 30.5%. For the same compound, the viability, T/C [22] was 14.9%, the viability, T/C [23] was 10.7% and the viability, T/C [24] was 12.4%. For the same compound, the viability, T/C [25] was 78.2%, the viability, T/C [26] was 52.8% and the viability, T/C [27] was 26.3%. For the same compound, the viability, T/C [28] was 16%, the viability, T/C [29] was 11.8% and the viability, T/C [30] was 13.8%. It also gave a viability, T/C [31] of 72.7%, a viability, T/C [32] of 56.5% and a viability, T/C [33] of 26.7%. For the same compound, the viability, T/C [34] was 16.8%, the viability, T/C [35] was 12.7% and the viability, T/C [36] was 12.7%. It also gave a viability, T/C (second compound 3.16 µM, first compound 0.0316 µM) of 66.1%, a viability, T/C (second compound 3.16 µM, first compound 0.1 µM) of 44.6% and a viability, T/C (second compound 3.16 µM, first compound 0.316 µM) of 27.8%. The viability, T/C (second compound 3.16 µM, first compound 1 µM) was 15.2%, the viability, T/C (second compound 3.16 µM, first compound 3.16 µM) was 12.2% and the viability, T/C (second compound 3.16 µM, first compound 10 µM) was 12.8%. It also gave a viability, T/C (second compound 10 µM, first compound 0.0316 µM) of 51.5%, a viability, T/C (second compound 10 µM, first compound 0.1 µM) of 38.8% and a viability, T/C (second compound 10 µM, first compound 0.316 µM) of 21.2%. It also gave a viability, T/C (second compound 10 µM, first compound 1 µM) of 13.3%, a viability, T/C (second compound 10 µM, first compound 3.16 µM) of 10% and a viability, T/C (second compound 10 µM, first compound 10 µM) of 9.74%.

With `Cn1ncc(Cl)c1-c1cc(C(=O)NC(CN)Cc2cccc(F)c2)sc1Cl` (stereo unspecified) + CC(Nc1ccc2c(c1)OCCn1cc(N3C(=O)OCC3C(F)F)nc1-2)C(N)=O the IC50 (second compound 0.00316 µM) was 82.7 nM, the IC50 (second compound 0.01 µM) was 83 nM and the IC50 (second compound 0.0316 µM) was 33.1 nM. The IC50 (second compound 0.1 µM) was under 31.6 nM, the IC50 (second compound 0.316 µM) was under 31.6 nM and the IC50 (second compound 1 µM) was under 31.6 nM. For the same compound, the viability, T/C [1] was 75.1%, the viability, T/C [2] was 45.4% and the viability, T/C [3] was 20.1%. It also gave a viability, T/C [4] of 13.6%, a viability, T/C [5] of 10.8% and a viability, T/C [6] of 7.43%. For the same compound, the viability, T/C [7] was 62.8%, the viability, T/C [8] was 48.7% and the viability, T/C [9] was 21.5%. It also gave a viability, T/C [10] of 14.8%, a viability, T/C [11] of 8.36% and a viability, T/C [12] of 5.21%. For the same compound, the viability, T/C [13] was 50.1%, the viability, T/C [14] was 39.8% and the viability, T/C [15] was 21%. For the same compound, the viability, T/C [16] was 12%, the viability, T/C [17] was 7.58% and the viability, T/C [18] was 3.65%. For the same compound, the viability, T/C [19] was 41%, the viability, T/C [20] was 32.6% and the viability, T/C [21] was 19.7%. For the same compound, the viability, T/C [22] was 11.2%, the viability, T/C [23] was 6.59% and the viability, T/C [24] was 3.25%. The viability, T/C [25] was 32.3%, the viability, T/C [26] was 25.9% and the viability, T/C [27] was 15.7%. For the same compound, the viability, T/C [28] was 11.2%, the viability, T/C [29] was 5.81% and the viability, T/C [30] was 2.34%. It also gave a viability, T/C [31] of 24%, a viability, T/C [32] of 23.5% and a viability, T/C [33] of 13.6%. The viability, T/C [34] was 9.98%, the viability, T/C [35] was 6.08% and the viability, T/C [36] was 2.69%.

Reference: PubChem BioAssay AID1963964 (Molecular Pharmacology Branch, DTP, NCI, 2024)
